In article PMC10108821, “Three tyrosine kinase inhibitors cause cardiotoxicity by inducing endoplasmic reticulum stress and inflammation in cardiomyocytes” (BMC Medicine, 2023):

Tests used:
ER stress genes in NRCMs = test: qRT-PCR of ER stress genes in NRCMs; assay type: cell-based, rat; conditions: trolox 1 mM with afatinib or sorafenib
Experimental: Rats were euthanized by decapitation and thoracic cavity was opened with scissors and hearts were popped out of the opening gently with fingers. Hearts were clipped and put in HBSS immediately; 20–40 hearts were collected into one sterile vial containing a magnetic stir bar and 1 mL digestive media made of 0.1% trypsin (Macklin) and 0.05% collagenase (Gibco) in HBSS. Hearts were minced until they were uniform in size. Digestive media was added to 10 mL for 40 hearts and stirred gently for 6 min. Supernatant was discarded and the digestion was repeated once; 10 mL digestive media was added and stirred gently for 10 min. The supernatant with cells were collected and the digestion and collection were repeated 4 times. Cells were centrifuged at 1200 rpm for 5 min, resuspended in media (Dulbecco’s modified Eagleʼs medium (Gibco)) with 10% fetal bovine serum (FBS; VISTECH), 1% penicillin–streptomycin, and 1% 0.1 M 5-bromo-2-deoxyuridine solution (Shanghai Yuanye) and filtered through a 40-μm cell strainer. Cells were seeded on a 100-mm plastic dish and cultured in a 5% CO2 incubator at 37 °C for 2 h to allow non-myocytes to adhere to the plate. The dish was swirled and media gently pipetted up and down to detach lightly attached cardiomyocytes. […] All drug treatments were performed after this media change.
RNA was isolated based on a standard protocol using TRIzol reagent (Vazyme). TRIzol (1ml per 1 well of a 6-well plate) was used to lyse cells and chloroform was added for RNA separation. Samples were shaked vigorously by hand for 15 seconds and incubated at room temperature for 2-3 minutes. RNA was present in the aqueous phase after centrifuge at 12000 x g for 15 minutes. Isopropyl alcohol was mixed to precipitate RNA from the aqueous phase. […] 1 μg total RNA was used for cDNA synthesis using a reverse transcription kit (Bioman). We then measured expression of genes of interest with SYBRR Green qPCR Mix (Bioman) using Applied Biosystems 7500 Quantitative PCR Instrument. Gene expression was normalized to the 18S ribosomal RNA expression and primers were listed in Primers Table.

Cor.4U hiPSC-CMs [1] = test: ATP level (CellTiter-Glo) in hiPSC-CMs; assay type: cell-based, human; conditions: for effect on ATP levels: 0.32 to 10 µM, day 1 to day 5; for dose-dependent toxicity (ATP fold changes): day 1, different doses; for dose-dependent toxicity (ATP fold changes) / time-dependent toxicity (ATP fold changes): RNAseq conditions; for time-dependent toxicity (ATP fold changes): fixed dose over 5 days
Experimental: ATP content was measured using the CellTiter-Glo Luminescent Cell Viability Assay (Promega) following the manufacturer’s protocol. After adding CellTiter-Glo reagents and incubation, luminescence was quantified using a Synergy H1 plate reader (BioTek Instruments). ATP standards were prepared from 0.01 to 5 μM. For each drug, we fitted a four-parameter log-logistic model to calculate ED50 at day 5 (Fig S1). To rank the cellular toxicity of the eight TKIs (Fig 1T), we calculated (EC50-Cmax)/(EC50+Cmax) and arranged from the smallest to the biggest for increasing cellular toxicity.

patients = conditions: cited from earlier work; for level of cardiotoxicity based on literature reports: ref Table S1, 2, 4, 26–36
HELP hiPSC-CMs = test: CardioExcyte 96 microelectrode array: base impedance and extracellular field potential; assay type: cell-based, human; conditions: fixed doses: 10 µM, crizotinib and ponatinib 3.16 µM; up to 24 h
Experimental: HELP hiPSC-CMs were seeded evenly into the 96-well microelectrode array, NSP-96 0.6mm sensor plate (Nanion technologies), at 50,000 cells per well. Measurements were started after 3-5 days of culture of these cells and until the impedance and the extracellular field potential are stable. Measurements were taken a few times before drug addition, and every 30~60 minutes after the drugs were added at 2x concentration. Values were averaged from 3 wells per group. Beat rate, amplitude of impedance, base impedance and FPDc were calculated by the Cardio Excyte Control 96 software package (Nanion Technologies).

NRCMs [2] = test: Mitochondrial membrane potential by TMRE staining; assay type: cell-based, rat; conditions: 24 h of treatment
From the text: Fig S3 Mitochondrial membrane potential changes in response to TKIs. (A) Raw images of TMRE staining in NRCMs treated with different drugs. (B) Fold changes in mitochondrial membrane potential at different treatments.

NRCMs [3] = test: Lipid peroxidation by C11-bodipy 581/591 and flow cytometry; conditions: 100 µM, 3 hours, Fig. S15
Experimental: For ROS assessment, cells were washed with PBS once and stained with 10μM H2DCFHDA (MCE) in phenol red-free DMEM (Procell) in a humid incubator with 5% CO2 at 37°C for 30 minutes. Cells were washed with PBS twice and dissociated to single cells before flow cytometry analysis at the FITC channel. For lipid peroxidation measurement, cells were washed with PBS once and stained with 2μM C11-bodipy^581/591 (Cayman) in phenol red-free DMEM (Procell) in a humid incubator with 5% CO2 at 37°C for 30 minutes. Cells were washed with PBS twice and dissociated to single cells before flow cytometry analysis at both the FITC and the PE channels. Fluorescence of the oxidized C11-bodipy were acquired through the FITC channel (Ex/Em=488/520nm) and that of the non-oxidized C11-bodipy through the PE channel (Ex/Em=555/624nm).

NRCMs [4] = test: Seahorse assay: oxygen consumption and extracellular acidification; assay type: cell-based, rat; conditions: 24 h; fixed doses: 10 µM, crizotinib and ponatinib 3.16 µM
Experimental: (§1) Rats were euthanized by decapitation and thoracic cavity was opened with scissors and hearts were popped out of the opening gently with fingers. Hearts were clipped and put in HBSS immediately; 20–40 hearts were collected into one sterile vial containing a magnetic stir bar and 1 mL digestive media made of 0.1% trypsin (Macklin) and 0.05% collagenase (Gibco) in HBSS. Hearts were minced until they were uniform in size. Digestive media was added to 10 mL for 40 hearts and stirred gently for 6 min. Supernatant was discarded and the digestion was repeated once; 10 mL digestive media was added and stirred gently for 10 min. The supernatant with cells were collected and the digestion and collection were repeated 4 times. Cells were centrifuged at 1200 rpm for 5 min, resuspended in media (Dulbecco’s modified Eagleʼs medium (Gibco)) with 10% fetal bovine serum (FBS; VISTECH), 1% penicillin–streptomycin, and 1% 0.1 M 5-bromo-2-deoxyuridine solution (Shanghai Yuanye) and filtered through a 40-μm cell strainer. Cells were seeded on a 100-mm plastic dish and cultured in a 5% CO2 incubator at 37 °C for 2 h to allow non-myocytes to adhere to the plate. The dish was swirled and media gently pipetted up and down to detach lightly attached cardiomyocytes. The collected myocytes were seeded in the same media described before; 48 h after plating, medium was exchanged to fresh DMEM (Gibco) with or without 2% FBS. All drug treatments were performed after this media change.
NRCMs were seeded evenly into the Seahorse XF96 cell culture plates (Agilent) and cultured in DMEM high glucose with 2% FBS. About 2 hours before the test, cells were moved to a non-CO2 incubator at 37 ° C and incubated for 1 hour. 1 hour prior to the test, culture media was replaced with the Seahorse Basal DMEM at 37°C (with appropriate concentration of glucose, 4mM L-glutamine, 1 mM sodium pyruvate and 1% penicillin-streptomycin solution) and incubated in a non-CO2 incubator at 37°C for 1 hour. Drugs were prepared at 8x to 10x concentrations with the corresponding seahorse media as in each well and added into ports of Seahorse XF96 cartridge plates which have been hydrated overnight. XFe96 Extracellular Flux Analyzer (Agilent) was used to measure oxygen consumption rate and extracellular acidification rate of cells with different drug treatments.

Cor.4U hiPSC-CMs [5] = test: 3'DGE-UMI RNAseq transcriptome of hiPSC-CMs; conditions: for expression of mitochondrial tRNA and electron transfer chain genes: high PC2 loadings; for expression of genes associated with heart contraction: Cluster 4, day 3 or day 5
NRCMs [6] = test: qRT-PCR of fetal, pro-inflammatory and ER stress genes with pathway-selective inhibitors; assay type: cell-based, rat; conditions: 24 h
Experimental: as §1
RNA was isolated based on a standard protocol using TRIzol reagent (Vazyme). TRIzol (1ml per 1 well of a 6-well plate) was used to lyse cells and chloroform was added for RNA separation. Samples were shaked vigorously by hand for 15 seconds and incubated at room temperature for 2-3 minutes. RNA was present in the aqueous phase after centrifuge at 12000 x g for 15 minutes. Isopropyl alcohol was mixed to precipitate RNA from the aqueous phase. RNA precipitations were washed with 75% ethanol once and re-dissolved in RNase-free water. 1 μg total RNA was used for cDNA synthesis using a reverse transcription kit (Bioman). We then measured expression of genes of interest with SYBRR Green qPCR Mix (Bioman) using Applied Biosystems 7500 Quantitative PCR Instrument. Gene expression was normalized to the 18S ribosomal RNA expression and primers were listed in Primers Table.

NRCMs [7] = conditions: ISRIB 200 nM or 4μ8c 10 μM with 10 µM sorafenib, 24-hr
Experimental: After treatment, cells were stained with 5 μg/mL Propidium iodide (Sigma-Aldrich) mixed with Hoechst33342 (Solarbio) in Phenol red-free DMEM (Procell) in a 5% CO2 incubator at 37°C for 30 minutes. Images of PI staining were acquired through the filter Ex/Em=555/624nm and of the nuclei staining through the filter Ex/Em=405/452 using ImageXpress Micro Confocal-AWES (Molecular Devices).

| Compound | effect on ATP levels (Cor.4U hiPSC-CMs [1]) | level of cardiotoxicity based on literature reports (patients) | effect on beat rate, contraction, base impedance and corrected field potential duration (HELP hiPSC-CMs) | basal oxygen consumption rate (OCR) (NRCMs [4]) | dose-dependent toxicity (ATP fold changes) (Cor.4U hiPSC-CMs [1]) | further results |
| --- | --- | --- | --- | --- | --- | --- |
| Cc1c(C)c2c(c(C)c1O)CCC(C)(C(=O)O)O2 (centres unmarked) [trolox] | – | – | – | – | – | effect on induction of ER stress by TKIs (ER stress genes in NRCMs): did not block the induction of ER stress by these TKIs |
| Cc1cn(-c2cc(NC(=O)c3ccc(C)c(Nc4nccc(-c5cccnc5)n4)c3)cc(C(F)(F)F)c2)cn1 [nilotinib] | dose-dependent and time-dependent reduction in ATP levels | medium-levels of cardiotoxicity | minimal effects on these parameters | – | – | EC50 (ATP) compared with maximal plasma concentration (Cmax) (Cor.4U hiPSC-CMs [1]; day 5): lower than or similar to their maximal plasma concentrations (Cmax); mitochondrial membrane potential (NRCMs [2]): trend of decreasing mitochondrial membrane potentials |
| CC(C)(OO)c1ccccc1 [cumene hydroperoxide] | – | – | – | – | – | level of lipid peroxidation, positive control (NRCMs [3]): 42% |
| C[C@@H](Oc1cc(-c2cnn(C3CCNCC3)c2)cnc1N)c1c(Cl)ccc(F)c1Cl [crizotinib] | dose-dependent and time-dependent reduction in ATP levels | medium-levels of cardiotoxicity | stopped beating and contraction of hiPSC-CMs after 0.5 h of treatment | trend of inhibiting basal oxygen consumption rate (OCR) | dose-dependent toxicity | expression of mitochondrial tRNA and electron transfer chain genes (Cor.4U hiPSC-CMs [5]): upregulated |
| CCN(CC)CCNC(=O)c1c(C)[nH]c(/C=C2\C(=O)Nc3ccc(F)cc32)c1C [sunitinib] | dose-dependent and time-dependent reduction in ATP levels | high-levels of cardiotoxicity | increased beat rate initially and reduced the base impedance very acutely | trend of inhibiting basal oxygen consumption rate (OCR) | dose-dependent toxicity | maximal, spare and non-mitochondrial oxygen consumption (NRCMs [4]): inhibited maximal, spare, and non-mitochondrial oxygen consumption significantly; time-dependent toxicity (ATP fold changes) (Cor.4U hiPSC-CMs [1]): increasing toxicity with treatment duration; congestive heart failure (patients; meta-analysis of 6935 patients): 4.1%; mitochondrial membrane potential (NRCMs [2]): trend of decreasing mitochondrial membrane potentials; expression of mitochondrial tRNA and electron transfer chain genes (Cor.4U hiPSC-CMs [5]): upregulated |
| COc1cc2ncnc(Nc3ccc(F)c(Cl)c3)c2cc1OCCCN1CCOCC1 [gefitinib] | did not inhibit ATP at any dose or time point tested | low cardiotoxicity | minimal effects on these parameters | – | did not | expression of genes associated with heart contraction (Cor.4U hiPSC-CMs [5]): upregulated |
| Cc1nc(Nc2ncc(C(=O)Nc3c(C)cccc3Cl)s2)cc(N2CCN(CCO)CC2)n1 [dasatinib] | did not inhibit ATP at any dose or time point tested | medium-levels of cardiotoxicity | minimal effects on these parameters | trend of inhibiting basal oxygen consumption rate (OCR) | did not | time-dependent toxicity (ATP fold changes) (Cor.4U hiPSC-CMs [1]): increasing toxicity with treatment duration; expression of genes associated with heart contraction (Cor.4U hiPSC-CMs [5]): upregulated |
| Cc1cc(=O)oc2c(C=O)c(O)ccc12 [4μ8c] | – | – | – | – | – | induction of inflammatory genes and cardiac fetal genes (Anp, Bnp/Nppb, Myh6) by TKIs (NRCMs [6]; 4μ8c 10 μM co-treatment with TKIs): blunted; effect on Atf4, Ddit3, Xbp1s and Dnajb9 expression induced by TKIs (NRCMs [6]; ISRIB 200 nM or 4μ8c 10 μM with TKIs): inhibited Xbp1s and Dnajb9 without affecting the ATF4 axis; rescue from cell death induced by sorafenib (NRCMs [7]): significantly rescued cardiac cell from death induced by sorafenib |
